According to ChEMBL document CHEMBL3865826, “Synthesis and biological evaluation of a series of non-hemiacetal ester derivatives of artemisinin” (Eur J Med Chem, 2016):

Key:
[1] = Growth inhibition of human TK10 cells measured after 24 hrs by SRB assay; assay type: functional, cell-based; details: TK-10, 24 h
[2] = system: Plasmodium falciparum; assay: Antiplasmodial activity against chloroquine-sensitive asexual erythrocyte stage form Plasmodium falciparum NF54 measured after 48 hrs by pLDH assay; assay type: functional; details: NF54, 48 h
[3] = Thermal stability of the compound assessed as melting point by thermogravimetric analysis; assay type: physicochemical
[4] = Growth inhibition of human MCF7 cells measured after 24 hrs by SRB assay; assay type: functional, cell-based; details: MCF7, 24 h
[5] = system: MCF7; assay: Selectivity index, ratio of IC50 for human WI38 cells to IC50 for human MCF7 cells; assay type: functional
[6] = Selectivity index, ratio of IC50 for human TK10 cells to IC50 for chloroquine-resistant asexual erythrocyte stage form Plasmodium falciparum Dd2; assay type: functional, TK-10
[7] = Selectivity index, ratio of IC50 for human MCF7 cells to IC50 for chloroquine-resistant asexual erythrocyte stage form Plasmodium falciparum Dd2; assay type: functional
[8] = system: CHO; assay: Selectivity index, ratio of IC50 for CHO cells to IC50 for human TK10 cells; assay type: functional
[9] = system: WI-38; assay: Selectivity index, ratio of IC50 for human WI38 cells to IC50 for human TK10 cells; assay type: functional
[10] = system: CHO; assay: Selectivity index, ratio of IC50 for CHO cells to IC50 for human MCF7 cells; assay type: functional
[11] = system: CHO; assay: Selectivity index, ratio of IC50 for CHO cells to IC50 for human UACC62 cells; assay type: functional
[12] = Selectivity index, ratio of IC50 for human WI38 cells to IC50 for chloroquine-sensitive asexual erythrocyte stage form Plasmodium falciparum NF54; assay type: toxicity, cell-based, WI-38; details: read-out: Ratio IC50
[13] = Resistance index, ratio of IC50 for chloroquine-resistant asexual erythrocyte stage form Plasmodium falciparum Dd2 to IC50 for chloroquine-sensitive asexual erythrocyte stage form Plasmodium falciparum NF54; assay type: functional
[14] = Cytotoxicity against CHO cells assessed as reduction in cell viability measured after 48 hrs by MTT assay; assay type: toxicity, cell-based, Cricetulus griseus; details: Chinese hamster
[15] = system: Plasmodium falciparum; assay: Antiplasmodial activity against chloroquine-resistant asexual erythrocyte stage form Plasmodium falciparum Dd2 measured after 48 hrs by pLDH assay; assay type: functional; details: Dd2, 48 h
[16] = Selectivity index, ratio of IC50 for CHO cells to IC50 for chloroquine-sensitive asexual erythrocyte stage form Plasmodium falciparum NF54; assay type: toxicity, cell-based; details: hamster, read-out: Ratio IC50
[17] = Growth inhibition of human UACC62 cells measured after 24 hrs by SRB assay; assay type: functional, cell-based; details: UACC-62, 24 h
[18] = Selectivity index, ratio of IC50 for human UACC62 cells to IC50 for chloroquine-resistant asexual erythrocyte stage form Plasmodium falciparum Dd2; assay type: functional, UACC-62
[19] = Cytotoxicity against human WI38 cells assessed as reduction in cell viability measured after 48 hrs by SRB assay; assay type: toxicity, cell-based, WI-38
[20] = system: UACC-62; assay: Selectivity index, ratio of IC50 for human WI38 cells to IC50 for human UACC62 cells; assay type: functional

| Structure (SMILES) | IC50 [1] [µM] | IC50 [2] [nM] | Tm [3] [°C] | IC50 [4] [µM] | Ratio IC50 [5] | Ratio IC50 [6] | Ratio IC50 [7] | Ratio IC50 [8] | Ratio IC50 [9] | Ratio IC50 [10] | Ratio IC50 [11] | selectivity ratio [12] | Ratio IC50 [13] | IC50 at 48 h [14] [µM] | IC50 [15] [nM] | selectivity ratio [16] | IC50 [17] [µM] | Ratio IC50 [18] | IC50 at 48 h [19] [µM] | Ratio IC50 [20] |
| --- | --- | --- | --- | --- | --- | --- | --- | --- | --- | --- | --- | --- | --- | --- | --- | --- | --- | --- | --- | --- |
| C[C@@H]1CC[C@H]2C(C)(COC(=O)c3ccc(-c4ccccc4)cc3)O[C@@H]3O[C@]4(C)CC[C@@H]1[C@]32OO4 (some centres undefined) | 41.7 | 7.3 | 173.8 | 2.51 | >40 | 6415 | 385 | >2 | >2 | >40 | >8 | > 13700 | 0.9 | > 100 | 6.5 | > 13700 | 12 | 1846 | > 100 | >8 |
| C[C@@H]1CC[C@H]2C(C)(COC(=O)c3ccco3)O[C@@H]3O[C@]4(C)CC[C@@H]1[C@]32OO4 (some centres undefined) | > 100 | 9.2 | 177.3 | > 100 |  |  |  |  |  |  |  | > 10900 | 0.4 | > 100 | 3.7 | > 10900 | > 100 |  | > 100 |  |
| Cc1ccsc1C(=O)OCC1(C)O[C@@H]2O[C@]3(C)CC[C@H]4[C@H](C)CC[C@@H]1[C@@]24OO3 (some centres undefined) | > 100 | 7.2 |  | 6.8 | >15 |  | 958 |  |  | >15 |  | > 13900 | 1 | > 100 | 7.1 | > 13900 | 13.9 | 1958 | > 100 |  |
| C[C@H]1[C@H](OC(=O)CCC(=O)O)O[C@@H]2O[C@@]3(C)CC[C@H]4[C@H](C)CC[C@@H]1[C@@]24OO3 [ARTESUNATE] |  | 8 | 134.7 |  |  |  |  |  |  |  |  | > 12500 | 0.9 | > 100 | 7.5 | > 12500 |  |  | > 100 |  |
| C[C@@H]1CC[C@H]2C(C)(COC(=O)CCc3ccccc3)O[C@@H]3O[C@]4(C)CC[C@@H]1[C@]32OO4 (some centres undefined) | > 100 | 7.4 |  | 34.2 | >3 |  | 2974 |  |  | >3 | >1.4 | > 13500 | 1.6 | > 100 | 11.5 | > 13500 | 69.3 | 6026 | > 100 | >1.4 |
| CCCCCC(=O)OCC1(C)O[C@@H]2O[C@]3(C)CC[C@H]4[C@H](C)CC[C@@H]1[C@@]24OO3 (some centres undefined) | > 100 | 60.1 |  | 47.5 | >2 |  | 1100 |  |  | >2 |  | > 1660 | 0.7 | > 100 | 43.2 | > 1660 | > 100 |  | > 100 |  |
| CC(=O)Oc1ccccc1C(=O)OCC1(C)O[C@@H]2O[C@]3(C)CC[C@H]4[C@H](C)CC[C@@H]1[C@@]24OO3 (some centres undefined) | > 100 | 2.7 | 175.2 | 10.5 | >10 |  | 2442 |  |  | >10 |  | > 37000 | 1.6 | > 100 | 4.3 | > 37000 | 19 | 4419 | > 100 |  |
| CC[C@H]1CN2CCc3cc(OC)c(OC)cc3[C@@H]2C[C@@H]1C[C@H]1NCCc2cc(OC)c(OC)cc21 [EMETINE] |  |  |  |  |  |  |  |  |  |  |  |  |  | 0.29 |  |  |  |  | 0.05 |  |
